From US4904664A, “Benzene compounds having two pyridazinone substituents” (Smith Kline & French Laboratories Limited, priority 1985, dated 1990)

Legend:
[1] = tested on: left ventricular contractility (left ventricular dp/dt max); assay: Cardiac stimulant activity in vivo, left ventricular dp/dt max in anaesthetised cats; conditions: Felis catus, iv, read-out: ED50 (dose to increase left ventricular dp/dt max by 50%), i.v., pretreated with pempidine and propranolol
[2] = tested on: hindquarters perfusion pressure; assay: Vasodilator activity in autoperfused anaesthetised cat hind quarters; type: in vivo; conditions: Felis catus, iv, constant blood flow, i.v., read-out: ED15 (i.v. dose to decrease hindquarters perfusion pressure by 15%)
Method: The compounds of the Examples were tested in autoperfused anaesthetised cat hind quarters (autoperfused at constant blood flow). The i.v. dose to decrease hindquarters perfusion pressure (vasodilatation) by 15% is given as the ED15.

PDE (Peak III) = assay: Inhibition of phosphodiesterase PDE (Peak III) from cat heart; conditions: 1 μM cyclic AMP
Method: The enzyme was assayed by incubation at 37° for 4-30 min in 50 mM Tris, 5 mM MgCl2, pH 7.5 with [3-H]cyclic nucleotide (4×10^5 disintegrations min^-1) and [14-C] nucleotide 5' monophosphate (3×10^3 disintegrations min^-1). […] The reaction mixture was diluted with 0.5 ml 100 mM HEPES (N-2-Hydroxyethylpiperazine-N'-2-ethanesulfonic acid), 100 mM NaCl, pH 8.5, and applied to the column. […] The recovery of product as judged by [14-C] recovery was approximately 80%. All assays were linear with time of incubation and concentration of enzyme over the range used in these experiments.

ventricular strips = assay: Cardiac stimulant activity in vitro, force of contraction of guinea pig ventricular strips; type: cell-based, Guinea pigs; conditions: Cavia porcellus, read-out: EC50 (50% increase in the force of contraction of the ventricular strips); concentration in bathing fluid
Method: The compounds of formula (I) and their pharmaceutically acceptable salts are tested for cardiac stimulant activity following a procedure based on that of S. C. Verma and J. H. McNeill (J. Pharm. & Exp. Therapeutics, 200, 352-362 (1977)). Guinea pigs (500-700 g) of either sex are sacrificed and the hearts are quickly removed and transferred to a dissecting dish containing oxygenated bathing fluid. While in the bathing medium, the right ventricle is cut into two strips. The strips are each suspended in a 50 ml bath containing Krebs Henseleit solution at 37° C., and the bath is bubbled with 95% oxygen and 5% carbon dioxide. The ventricular strips are electrically stimulated at a frequency of 1.0 Hz, at double the threshold voltage. A resting tension of 1.0 g is applied to the strips and the tension is kept constant by readjustment during an equilibration period of 60 minutes. The bathing fluid is frequently changed during this period. When a steady base line is obtained, a compound under test is added to the bathing fluid and a cumulative concentration response curve is plotted.

[3] = tested on: histamine-induced bronchoconstriction; assay: Bronchodilatation in vivo, histamine-induced bronchoconstriction in anaesthetised guinea-pigs; parameters: species or system Dunkin Hartley strain; conditions: n=1
Method: Male guinea-pigs of the Dunkin Hartley strain (500-600 g) were anaesthetised with Sagatal (pentobarbital sodium) (60 mg/kg i.p.). Airway resistance was measured using a modification of the classical Konzett-Rossler technique (Versuchsanordnung zu Untersuchungen an der Bronchialmuskulatur. Naunyn-Schmiedebergs Arch. Exp. Path. Pharmak., 195: pp 71-74, (1940)). A dose of histamine which gave approximately 150% increase in airway resistance was selected for i.v. administration. Bolus doses of the compound of Example 6 were administered (i.v.) on minute before the histamine challenge (n=1).

SMILES | IC50 (PDE (Peak III)) [µM] | EC50 (ventricular strips) [µM] | ED50 [1] [µmol/kg] | ED15 [2] [µmol/kg] | ED50 ([3]; Cavia porcellus, iv, read-out: ED50 (dose which would reduce the histamine bronchoconstriction by 50%), i.v. one minute before histamine challenge, calculated by interpolation) [µmol/kg] | effect on histamine-induced bronchoconstriction ([3]; i.v., in words)
O=C1CCC(c2ccc(C3=NNC(=O)CC3)cc2)=NN1 [Example 2, 1,4-Bis(6-oxo-1,4,5,6-tetrahydropyridazin-3-yl)benzene] | 0.64 |  | 0.55 | 0.12 |  | 
O=c1ccc(-c2ccc(-c3ccc(=O)[nH]n3)cc2)n[nH]1 [Example 1, 1,4-Bis(6-oxo-1,6-dihydropyridazin-3-yl)benzene] | 0.33 | 0.9 | 0.04 |  |  | 
Cc1cc(=O)[nH]nc1-c1ccc(-c2n[nH]c(=O)cc2C)cc1 [Example 4, 1,4-Bis(4-methyl-6-oxo-1,6-dihydropyridazin-3-yl)benzene] | 37.5 |  |  |  |  | 
CC1CC(=O)NN=C1c1ccc(C2=NNC(=O)CC2C)cc1 (stereo not drawn) [Example 3, 1,4-Bis(4-methyl-6-oxo-1,4,5,6-tetrahydropyridazin-3-yl)benzene] | 0.11 |  | 0.06 | 0.04 |  | 

Second part, led by results:

IC50 (PDE (Peak III)) [µM] | EC50 (ventricular strips) [µM] | SMILES | ED50 [1] [µmol/kg] | ED15 [2] [µmol/kg] | ED50 ([3]; Cavia porcellus, iv, read-out: ED50 (dose which would reduce the histamine bronchoconstriction by 50%), i.v. one minute before histamine challenge, calculated by interpolation) [µmol/kg] | effect on histamine-induced bronchoconstriction ([3]; i.v., in words)
3.9 |  | O=c1ccc(-c2cccc(-c3ccc(=O)[nH]n3)c2)n[nH]1 [Example 5, 1,3-Bis(6-oxo-1,6-dihydropyridazin-3-yl)benzene] | 3.16 | 3.23 |  | 
0.07 |  | CC1CC(=O)NN=C1c1ccc(-c2ccc(=O)[nH]n2)cc1 (stereo not drawn) [Example 6, 6-[4-(4-Methyl-6-oxo-1,4,5,6-tetrahydropyridazin-3-yl)phenyl]pyridazin-3(2H)-one] | 0.02 | 0.01 | 0.033 | reduced the histamine-induced bronchoconstriction
